{"source": "patent US8697724B2", "about": "“Crystalline oxalate salts of a diamide compound” (Theravance, Inc., priority 2010, dated 2014)", "key": {"[1]": {"test_system": "methacholine (MCh)-induced bronchoconstriction", "test": "Einthoven assay: bronchoprotection against methacholine-induced bronchoconstriction", "type": "in vivo, rat", "conditions": "male Sprague-Dawley rats, inhalation, 100 μg, at 24 h", "protocol": "This assay measures the ability of a test compound to provide bronchoprotection against methacholine (MCh)-induced bronchoconstriction in a rat.\nMale Sprague-Dawley rats (Harlan, Indianapolis, Ind.), weighing between 200 g and 350 g, were used for all studies.\nTest compound or vehicle (sterile deionized water) were dosed by inhalation (IH) over a 10 min period in a pie shaped inhalation chamber (R+S Molds, San Carlos, Calif.) using 5 mL of dosing solution. Rats were exposed to an aerosol, which was generated from an LC Star Nebulizer Set Model 22F51 (PARI Respiratory Equipment, Inc. Midlothian, Va.) driven by Bioblend (5% CO2/95% atmospheric air) at a pressure of 22 psi. Rats were dosed with 100 μg of test compound unless otherwise indicated.\nAt predetermined time points, rats were anesthetized with an intraperitoneal (IP) injection of 120 mg/kg inactin (thiobutabarbital). A supplemental dose (40 mg/kg, IP) was administered if the animal responded to physical stimuli (e.g. toe pinch). The surgical site was shaved and a 1-2 cm midline incision of the ventral aspect of the neck was made. […]\nChanges in VP were recorded using the Acknowledge Data Collection Software (Santa Barbara, Calif.). […] Changes in ventilation pressure (cm H2O) in treated animals are expressed as % inhibition of MCh response relative to control animals."}, "[2]": {"test": "Differential scanning calorimetry (thermal stability)", "type": "physicochemical", "conditions": "DSC traces, 10° C./min", "protocol": "Differential scanning calorimetry (DSC) was performed using a TA Instruments Model Q-100 module with a Thermal Analyst controller. Data were collected and analyzed using TA Instruments Thermal Solutions software. A sample of about 2 mg was accurately weighed into an aluminum pan with lid. The sample was evaluated using a linear heating ramp of 10° C./min from ambient temperature to approximately 300° C. The DSC cell was purged with dry nitrogen during use. Representative DSC traces for Form 1 and Form 2 are shown in FIG. 2 and FIG. 5, respectively."}, "[3]": {"test": "Dynamic moisture sorption (DMS) assessment", "type": "physicochemical", "protocol": "A dynamic moisture sorption (DMS) assessment (also known as a moisture sorption-desorption profile) was performed for a sample of Form 2 using a VTI atmospheric microbalance, SGA-100 system (VTI Corp., Hialeah, Fla. 33016). A sample size of approximately 10 mg was used and the humidity was set at the ambient value at the start of the analysis. A typical DMS analysis consisted of three scans: ambient to 5% relative humidity (RH), 5% RH to 90% RH, 90% RH to 5% RH at a scan rate of 5% RH/step. The mass was measured every two minutes and the RH was changed to the next value (+/−5% RH) when the mass of the sample was stable to within 0.01% for 5 consecutive points."}, "[4]": {"conditions": "reversible moisture sorption/desorption profile"}}, "note": "Where a name gives a salt, the structure may show the parent alone."}
{"smiles": "CN(CCCCC(=O)Nc1ccc(CNC[C@H](O)c2ccc(O)c3[nH]c(=O)ccc23)cc1)C(=O)CCN1CCC(OC(=O)Nc2ccccc2-c2ccccc2)CC1", "note": "[Biphenyl-2-ylcarbamic Acid 1-(2-{[4-(4-{[(R)-2-hydroxy-2-(8-hydroxy-2-oxo-1,2-dihydroquinolin-5-yl)ethylamino]methyl}phenylcarbamoyl)-butyl]methylcarbamoyl}ethyl)piperidin-4-yl Ester Ditrifluoroacetic Acid Salt]", "values": [{"measurement": "% inhibition of MCh response", "setting": "[1]", "value": "at least 40%"}]}
{"smiles": "CN(CCCCC(=O)Nc1ccc(CNC[C@H](O)c2ccc(O)c3[nH]c(=O)ccc23)cc1)C(=O)CCN1CCC(OC(=O)Nc2ccccc2-c2ccccc2)CC1", "note": "[Form 1, Biphenyl-2-ylcarbamic Acid 1-(2-{[4-(4-{[(R)-2-Hydroxy-2-(8-hydroxy-2-oxo-1,2-dihydroquinolin-5-yl)ethylamino]methyl}-phenylcarbamoyl)butyl]methylcarbamoyl}ethyl)piperidin-4-yl Ester Oxalate Isopropanol Solvate Salt (Form 1)]", "values": [{"measurement": "thermal stability", "setting": "[2]", "value": "excellent thermal stability"}]}
{"smiles": "CN(CCCCC(=O)Nc1ccc(CNC[C@H](O)c2ccc(O)c3[nH]c(=O)ccc23)cc1)C(=O)CCN1CCC(OC(=O)Nc2ccccc2-c2ccccc2)CC1", "note": "[Form 2, Biphenyl-2-ylcarbamic Acid 1-(2-{[4-(4-{[(R)-2-Hydroxy-2-(8-hydroxy-2-oxo-1,2-dihydroquinolin-5-yl)ethylamino]methyl}-phenylcarbamoyl)butyl]methylcarbamoyl}ethyl)piperidin-4-yl Ester Oxalate Hydrate Salt (Form 2)]", "values": [{"measurement": "change in physical form during moisture sorption and desorption (PXRD before and after DMS)", "setting": "[3]; PXRD profiles before and after the DMS experiment", "value": "no change in physical form occurred"}, {"measurement": "weight gain (moisture sorption)", "setting": "[3]; humidity range of 5% RH to 90% RH", "value": "about 1.6 weight %"}, {"measurement": "deliquescence", "setting": "[3]; [4]", "value": "not deliquescent"}, {"measurement": "hygroscopicity", "setting": "[3]; [4]", "value": "acceptable hygroscopicity"}]}
